Data published in patent US20250288704A1, “CXCR4-LIGANDS FOR DIAGNOSTIC AND THERAPEUTIC USE AND PRECURSORS THEREOF” (priority 2021, published 2025).
Where two headings read alike, the source gives them in different places. Starred links: 1 amine or outer side, 2 acyl side, 3 side chain; linkers in the order of their positions; H or OH if unused. Positions of bridges follow the written chain, without caps; N, C: chain ends. Non-standard residues stand in square brackets, D forms with d. Residues, ends and D or L forms follow the SMILES beside them. Groups on a side chain read outwards from the residue. Chains are numbered I, II in the order given. *: point of attachment. X7 = O=C(O)CN1CCN(CC(=O)O)CCN([C@H](CCC(=O)*)C(=O)O)CCN(CC(=O)O)CC1; Benzoyl(4-SiFtBu2) = CC(C)(C)[Si](F)(c1ccc(C(=O)*)cc1)C(C)(C)C; DOTA = O=C(O)CN1CCN(CC(=O)O)CCN(CC(=O)*)CCN(CC(=O)O)CC1; Dolaproine = CO[C@@H]([C@@H]1CCCN1)[C@@H](C)C(=O)O; Dil = CC[C@H](C)[C@H](NC)[C@@H](CC(=O)O)OC; d(γGlu) = O=C(O)[C@@H](CCC(=O)[*:2])N[*:1]; X11 = O=C1CC([*:2])C(=O)N1CCCCCC(=O)[*:1]; dTyr(3-I) = N[C@H](Cc1ccc(O)c(I)c1)C(=O)O; 2Nal = N[C@@H](Cc1ccc2ccccc2c1)C(=O)O; PABC = O=C(OCc1ccc(N[*:1])cc1)[*:2]; X10 = C[C@@H](N*)[C@@H](O)c1ccccc1; dCit = NC(=O)NCCC[C@@H](N)C(=O)O; Cit = NC(=O)NCCC[C@H](N)C(=O)O; dNMeOrn = CN[C@H](CCCN)C(=O)O; NMeV = CN[C@H](C(=O)O)C(C)C; d(hCys) = N[C@H](CCS)C(=O)O; Mercaptoacetyl = O=C(CS)*; 4Abz = Nc1ccc(C(=O)O)cc1; dDap = NC[C@@H](N)C(=O)O; CO = O=C([*:1])[*:2]; Ahx = NCCCCCC(=O)O

Key:
[1] = target: CXCR4 (Homo sapiens, UniProt P61073); test: Determination of IC50: competition with 125I-Fc-131 on CXCR4-positive Jurkat cells; assay type: binding; set-up: CXCR4-positive Jurkat T lymphocyte cells were grown in Gibco's RPMI 1640 GlutaMAX medium; endogenous in cells; host or cells: Jurkat T lymphocyte cells (whole cells in suspension, 400.000 per tube);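 note: test compound at 10^−5 to 10^−11 M competed for 2 h at 8 °C with the radioligand on 400,000 cells per well, bound versus free activity measured by γ-counting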
Chain of CXCR4 (P61073 whole entry): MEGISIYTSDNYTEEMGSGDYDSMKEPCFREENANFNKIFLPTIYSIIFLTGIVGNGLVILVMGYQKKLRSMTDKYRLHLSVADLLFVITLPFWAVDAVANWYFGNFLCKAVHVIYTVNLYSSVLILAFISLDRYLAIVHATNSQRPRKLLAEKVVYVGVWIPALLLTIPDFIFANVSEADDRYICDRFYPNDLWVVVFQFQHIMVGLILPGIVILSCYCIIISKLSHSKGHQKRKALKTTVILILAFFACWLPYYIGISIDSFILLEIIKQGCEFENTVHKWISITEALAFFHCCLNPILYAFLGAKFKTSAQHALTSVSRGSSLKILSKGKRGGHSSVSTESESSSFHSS
Description: For in vitro experiments, cells were counted in a hemocytometer using trypan blue as contrast agent. The cell suspension was centrifuged, and the pellet resuspended in HBSS (+1 wt % BSA) to a concentration of 2 mio cells/mL. […] 200 μL of cell suspension (400.000 cells per well) were added to obtain a final peptide concentration range of 10^−5-10^−11 M. The tubes were cooled for 2 h at 8° C. to prevent internalization. The experiment was stopped by removal of the supernatant. 200 μL HBSS were added onto the cells, the suspension centrifuged, and the supernatant pooled with the respective first fractions. This step was repeated once more before the tubes containing the supernatants and the ones containing the cell pellets were subjected to activity measurement in the γ-counter.

[2] = Octanol/PBS partition coefficient (logD7.4); assay type: physicochemical; conditions: n-octanol/PBS pH 7.4, radiolabeled compound
Description: The tubes were vortexed at maximum speed for 3 min to ensure equilibrium before centrifugation at 15.000×g for 5 min on a Biofuge 15 from Heraeus Holding GmbH (Osterode, Germany). An aliquot of 100 μL of each fraction was measured in the γ-counter and the log D7.4 calculated as follows: […]

[3] = Biodistribution in Jurkat tumor-bearing CB-17 SCID mice; assay type: in vivo; conditions: female, CB-17 SCID, mouse, in vivo, iv, total radioactivity, 1 h p.i., Jurkat xenograft, CB-17 SCID female mice
Description: All animal experiments were conducted in accordance with general animal welfare regulations in Germany and the institutional guidelines for the care and use of animals. To establish tumor xenografts, Jurkat cells (2-3×10^7 cells) were suspended in a mixture of Gibco's RPMI 1640 medium and Matrigel (1/1; v/v) from BD Biosciences (Heidelberg, Germany), and inoculated subcutaneously onto the right shoulder of 6-10 weeks old CB17-SCID mice from either Charles River GmbH (Sulzfeld, Germany) or the in-house mouse breeding facility. Mice were used when tumors had grown to a diameter of 5-8 mm (4-10 weeks after inoculation).
Approximately 0.5-20 MBq (0.02-0.20 nmol) of the ^125I-, ^177Lu-, ^99mTc-, ^18F- or ^68Ga-labeled ligand were injected into the tail vein of Jurkat tumor-bearing CB-17 SCID mice and the animals sacrificed after the respective biodistribution time. Selected organs were removed, weighted and measured in a γ-counter.

[4] = unlabeled or cold (natGa/natLu) compound vs 125I-Fc-131, Jurkat cells, read-out: IC50

Compound: C[C@@H](NC(=O)[C@@H](CCCNC(=N)N)NC(=O)[C@@H](CN)NC(=O)CN1CCN(CC(=O)O)CCN(CC(=O)O)CCN(CC(=O)O)CC1)C(=O)Nc1ccc(C(=O)NCCC[C@@H]2C(=O)N[C@@H](CCCNC(=N)N)C(=O)N[C@@H](Cc3ccc4ccccc4c3)C(=O)NCC(=O)N[C@H](Cc3ccc(O)cc3)C(=O)N2C)cc1 [CXCR4-DOTA-3] (cyclo([dY][dNMeOrn]([4Abz-dA-dR-dDap-DOTA])R[2Nal]G))
- IC50 [1, 4]: 3.16 ± 0.63 nM

Compound: C[C@@H](NC(=O)[C@@H](CCCNC(=N)N)NC(=O)[C@@H](CN)NC(=O)CN1CCN(CC(=O)O)CCN(CC(=O)O)CCN(CC(=O)O)CC1)C(=O)Nc1ccc(C(=O)NCCC[C@@H]2C(=O)N[C@@H](CCCNC(=N)N)C(=O)N[C@@H](Cc3ccc4ccccc4c3)C(=O)NCC(=O)N[C@H](Cc3ccc(O)c(I)c3)C(=O)N2C)cc1 [CXCR4-DOTA-4] (cyclo([dTyr(3-I)][dNMeOrn]([4Abz-dA-dR-dDap-DOTA])R[2Nal]G))
- IC50 [1, 4]: 4.64 ± 0.96 nM

Compound: C[C@@H](NC(=O)[C@@H](CCCNC(N)=O)NC(=O)[C@@H](CN)NC(=O)CN1CCN(CC(=O)O)CCN(CC(=O)O)CCN(CC(=O)O)CC1)C(=O)Nc1ccc(C(=O)NCCC[C@@H]2C(=O)N[C@@H](CCCNC(=N)N)C(=O)N[C@@H](Cc3ccc4ccccc4c3)C(=O)NCC(=O)N[C@H](Cc3ccc(O)cc3)C(=O)N2C)cc1 [CXCR4-DOTA-5] (cyclo([dY][dNMeOrn]([4Abz-dA-dCit-dDap-DOTA])R[2Nal]G))
- IC50 [1, 4]: 21.3 ± 6.64 nM

Compound: CC[C@H](C)[C@@H]([C@@H](CC(=O)N1CCC[C@H]1[C@H](OC)[C@@H](C)C(=O)N[C@H](C)C(O)c1ccccc1)OC)N(C)C(=O)[C@@H](NC(=O)[C@H](C(C)C)N(C)C(=O)OCc1ccc(NC(=O)[C@H](CCCNC(N)=O)NC(=O)[C@@H](NC(=O)CCCCCN2C(=O)CC(SC[C@@H](N)C(=O)NC(CCCNC(=N)N)C(=O)N[C@H](C)C(=O)Nc3ccc(C(=O)NCCC[C@@H]4C(=O)N[C@@H](CCCNC(=N)N)C(=O)N[C@H](Cc5ccc6ccccc6c5)C(=O)NCC(=O)N[C@@H](Cc5ccc(O)cc5)C(=O)N4C)cc3)C2=O)C(C)C)cc1)C(C)C (stereo partly shown) [CXCR4-MMAE-1]
- IC50 [1]: 99.8 ± 7.55 nM

Compound: CC[C@H](C)[C@@H]([C@@H](CC(=O)N1CCC[C@H]1[C@H](OC)[C@@H](C)C(=O)N[C@H](C)[C@@H](O)c1ccccc1)OC)N(C)C(=O)[C@@H](NC(=O)[C@H](C(C)C)N(C)C(=O)OCc1ccc(NC(=O)[C@H](CCCNC(N)=O)NC(=O)[C@@H](NC(=O)CCCCCN2C(=O)CC(SCC[C@@H](NC(C)=O)C(=O)N[C@H](CNC(=O)CC[C@H](C(=O)O)N3CCN(CC(=O)O)CCN(CC(=O)O)CCN(CC(=O)O)CC3)C(=O)NCCCCCC(=O)N[C@H](CN)C(=O)N[C@H](CCCNC(=N)N)C(=O)N[C@H](C)C(=O)Nc3ccc(C(=O)NCCC[C@@H]4C(=O)N[C@@H](CCCNC(=N)N)C(=O)N[C@@H](Cc5ccc6ccccc6c5)C(=O)NCC(=O)N[C@H](Cc5ccc(O)cc5)C(=O)N4C)cc3)C2=O)C(C)C)cc1)C(C)C (stereo partly shown) [CXCR4-MMAE-4] (I: V[Cit][PABC][NMeV]V[Dil][Dolaproine]-X10 / II: Ac-[d(hCys)][dDap](X7)[Ahx][dDap][dR][dA][4Abz] / III: cyclo([2Nal]G[dY][dNMeOrn]R); linker I:N-II:1 via X11; amide II:C-III:4)
- IC50 [1]: 113 ± 20 nM
- logD7.4 [2]: −1.04 ± 0.07 (8)

Compound: C[C@@H](NC(=O)[C@@H](CCCNC(=N)N)NC(=O)[C@@H](CN)NC(=O)[C@@H](CNC(=O)CC[C@H](C(=O)O)N1CCN(CC(=O)O)CCN(CC(=O)O)CCN(CC(=O)O)CC1)NC(=O)[C@@H](CNC(=O)c1ccc([Si](F)(C(C)(C)C)C(C)(C)C)cc1)NC(=O)CC[C@@H](NC(=O)N[C@H](CCC(=O)O)C(=O)O)C(=O)O)C(=O)Nc1ccc(C(=O)NCCC[C@@H]2C(=O)N[C@@H](CCCNC(=N)N)C(=O)N[C@@H](Cc3ccc4ccccc4c3)C(=O)NCC(=O)N[C@H](Cc3ccc(O)cc3)C(=O)N2C)cc1 [CXCR4-SiFA-4 [Lu]] (I: {dE-CO-d(γGlu)}-[dDap](Benzoyl(4-SiFtBu2))[dDap](X7)[dDap][dR][dA][4Abz] / II: cyclo([dY][dNMeOrn]R[2Nal]G); amide I:C-II:2)
- IC50 ([1]; unlabeled or cold (natGa/natLu) compound vs 125I-Fc-131, Jurkat cells): 93.4 ± 10.2 nM
- logD7.4 [2]: −1.71 ± 0.09 (8)

Compound: C[C@@H](NC(=O)[C@@H](CCCNC(=N)N)NC(=O)[C@@H](C)NC(=O)[C@@H](CO)NC(=O)[C@@H](CO)NC(=O)[C@@H](CO)NC(=O)CS)C(=O)Nc1ccc(C(=O)NCCC[C@@H]2C(=O)N[C@@H](CCCNC(=N)N)C(=O)N[C@@H](Cc3ccc4ccccc4c3)C(=O)NCC(=O)N[C@H](Cc3ccc(O)cc3)C(=O)N2C)cc1 [Tc-CXCR4-2] (I: Mercaptoacetyl-[dS][dS][dS][dA][dR][dA][4Abz] / II: cyclo([dY][dNMeOrn]R[2Nal]G); amide I:C-II:2)
- IC50 [1]: 32.4 ± 9.9 nM

Compound: C[C@@H](NC(=O)[C@@H](CCCNC(=N)N)NC(=O)[C@@H](CCCNC(=N)N)NC(=O)[C@@H](CO)NC(=O)[C@@H](CO)NC(=O)[C@@H](CO)NC(=O)CS)C(=O)Nc1ccc(C(=O)NCCC[C@@H]2C(=O)N[C@@H](CCCNC(=N)N)C(=O)N[C@@H](Cc3ccc4ccccc4c3)C(=O)NCC(=O)N[C@H](Cc3ccc(O)cc3)C(=O)N2C)cc1 [Tc-CXCR4-3] (I: Mercaptoacetyl-[dS][dS][dS][dR][dR][dA][4Abz] / II: cyclo([dY][dNMeOrn]R[2Nal]G); amide I:C-II:2)
- IC50 [1]: 184 ± 25.3 nM

Compound: C[C@@H](NC(=O)[C@@H](CCCNC(=N)N)NC(=O)[C@@H](Cc1ccccc1)NC(=O)[C@@H](CO)NC(=O)[C@@H](CO)NC(=O)[C@@H](CO)NC(=O)CS)C(=O)Nc1ccc(C(=O)NCCC[C@@H]2C(=O)N[C@@H](CCCNC(=N)N)C(=O)N[C@@H](Cc3ccc4ccccc4c3)C(=O)NCC(=O)N[C@H](Cc3ccc(O)cc3)C(=O)N2C)cc1 [Tc-CXCR4-4] (I: Mercaptoacetyl-[dS][dS][dS][dF][dR][dA][4Abz] / II: cyclo([dY][dNMeOrn]R[2Nal]G); amide I:C-II:2)
- IC50 [1]: 3490 ± 502 nM

Compound: C[C@@H](NC(=O)[C@@H](CCCNC(=N)N)NC(=O)[C@@H](Cc1c[nH]cn1)NC(=O)[C@@H](CO)NC(=O)[C@@H](CO)NC(=O)[C@@H](CO)NC(=O)CS)C(=O)Nc1ccc(C(=O)NCCC[C@@H]2C(=O)N[C@@H](CCCNC(=N)N)C(=O)N[C@@H](Cc3ccc4ccccc4c3)C(=O)NCC(=O)N[C@H](Cc3ccc(O)cc3)C(=O)N2C)cc1 [Tc-CXCR4-5] (I: Mercaptoacetyl-[dS][dS][dS][dH][dR][dA][4Abz] / II: cyclo([dY][dNMeOrn]R[2Nal]G); amide I:C-II:2)
- tissue uptake at 1 h ([3]; Adrenal, read-out: % iD/g Adrenal): 0.42 %ID/g
- tissue uptake at 1 h ([3]; Blood, read-out: % iD/g Blood): 0.65 %ID/g
- tissue uptake at 1 h ([3]; Bone, read-out: % iD/g Bone): 1.55 %ID/g
- tissue uptake at 1 h ([3]; Heart, read-out: % iD/g Heart): 0.48 %ID/g
- tissue uptake at 1 h ([3]; Intestine, read-out: % iD/g Intestine): 0.76 %ID/g
- tissue uptake at 1 h ([3]; Kidney, read-out: % iD/g Kidney): 2.89 %ID/g
- tissue uptake at 1 h ([3]; Liver, read-out: % iD/g Liver): 2.42 %ID/g
- tissue uptake at 1 h ([3]; Lung, read-out: % iD/g Lung): 1.57 %ID/g
- tissue uptake at 1 h ([3]; Muscle, read-out: % iD/g Muscle): 0.15 %ID/g
- tissue uptake at 1 h ([3]; Pancreas, read-out: % iD/g Pancreas): 0.4 %ID/g
- tissue uptake at 1 h ([3]; Spleen, read-out: % iD/g Spleen): 8.47 %ID/g
- tissue uptake at 1 h ([3]; Stomach, read-out: % iD/g Stomach): 0.7 %ID/g
- tissue uptake at 1 h ([3]; Tumor, read-out: % iD/g Tumor): 1.48 %ID/g
- IC50 [1]: 11 ± 1.3 nM
